Laboratory results from patent publication US6384220B2, “Para-aryl or heterocyclic substituted phenyl glucokinase activators” (Hoffmann-La Roche Inc., priority 2000, dated 2002).

SMILES	melting point
O=C(Nc1nccs1)C(CC1CCCC1)c1ccc(Oc2ccccc2)cc1 (centres unmarked) [Example 12, 3-Cyclopentyl-2-(4-phenoxy-phenyl)-N-thiazol-2-yl-propionamide]	154.9 to 155.1 °C
O=C(Nc1nc(CCO)cs1)C(CC1CCCC1)c1ccc(-c2cccc3ccccc23)cc1 (centres unmarked) [Example 6, 3-Cyclopentyl-N-[4-(2-hydroxyethyl)-thiazol-2-yl]-2-(4-naphthalen-1-yl-phenyl)-propionamide]	84 to 87 °C
O=C(Nc1nccs1)C(CC1CCCC1)c1ccc(OCc2ccccc2)cc1 (centres unmarked) [Example 11, 2-(4-Benzyloxy-phenyl)-3-cyclopentyl-N-thiazol-2-yl-propionamide]	48 to 50 °C
COC(=O)c1csc(NC(=O)C(CC2CCCC2)c2ccc(-c3ccccc3)cc2)n1 (centres unmarked) [Example 2, 2-(2-Biphenyl-4-yl-3-cyclopentyl-propionylamino)-thiazole-4-carboxylic acid methyl ester]	98 to 101 °C
CNC(=O)NC(=O)C(CC1CCCC1)c1ccc(-c2ccc3[nH]ccc3c2)cc1 (centres unmarked) [Example 37, 1-{3-Cyclopentyl-2-[4-(1H-indol-5-yl)-phenyl]-propionyl}-3-methyl-urea]	91 to 95 °C
CNC(=O)NC(=O)C(CC1CCCC1)c1ccc(-c2ccccc2)cc1 (centres unmarked) [Example 34, 1-(2-Biphenyl-4-yl-3-cyclopentyl-propionyl)-3-methyl urea]	195 to 197 °C
O=C(Nc1nccs1)C(CC1CCCC1)c1ccc(S(=O)(=O)c2ncc[nH]2)cc1 (centres unmarked) [Example 20, 3-Cyclopentyl-2-[4-(1H-imidazole-2-sulfonyl)-phenyl]-N-thiazol-2-yl-propionamide]	249 to 251 °C
O=C(Nc1ccc(CO)cn1)C(CC1CCCC1)c1ccc(-c2cccc3ccccc23)cc1 (centres unmarked) [Example 27, 3-Cyclopentyl-N-(5-hydroxymethyl-pyridin-2-yl)-2-(4-naphthalen-1-yl-phenyl)-propionamide]	72 to 75 °C
O=C(O)c1ccc(NC(=O)C(CC2CCCC2)c2ccc(-c3cccc4ccccc34)cc2)nc1 (centres unmarked) [Example 26, 6-[3-Cyclopentyl-2-(4-naphthalen-1-yl-phenyl)-propionylamino]-nicotinic acid]	155 to 158 °C
CNC(=O)NC(=O)C(CC1CCCC1)c1ccc(-c2cccnc2)cc1 (centres unmarked) [Example 36, 1-[3-Cyclopentyl-2-(4-pyridin-3-yl-phenyl)-propionyl]-3-methyl-urea]	158 to 160 °C
CNC(=O)NC(=O)C(CC1CCCC1)c1ccc(N2CCOCC2)cc1 (centres unmarked) [Example 39, 1-[3-Cyclopentyl-2-(4-morpholin-4-yl-phenyl)-propionyl]-3-methyl-urea]	206 to 207 °C
O=C(Nc1nccs1)C(CC1CCCC1)c1ccc(-c2cccs2)cc1 (centres unmarked) [Example 7, 3-Cyclopentyl-N-thiazol-2-yl-2-(4-thiophen-2-yl-phenyl)-propionamide]	194 °C (dec.)
CNC(=O)NC(=O)C(CC1CCCC1)c1ccc(S(=O)(=O)C2CCCCC2)cc1 (centres unmarked) [Example 40, 1-[2-(4-Cyclohexanesulfonyl-phenyl)-3-cyclopentyl-propionyl]-3-methyl-urea]	244 to 246 °C
O=C(Nc1nccs1)C(CC1CCCC1)c1ccc(S(=O)(=O)C2CCCC2)cc1 (centres unmarked) [Example 19, 2-(4-Cyclopentanesulfonyl-phenyl)-3-cyclopentyl-N-thiazol-2-yl-propionamide]	180 to 182 °C
CNC(=O)NC(=O)C(CC1CCCC1)c1ccc(-c2cccc3ccccc23)cc1 (centres unmarked) [Example 35, 1-[3-Cyclopentyl-2-(4-naphthalen-1-yl-phenyl)-propionyl]-3-methyl urea]	85 to 88 °C
O=C(Nc1nccs1)C(CC1CCCC1)c1ccc(-c2ccc3[nH]ccc3c2)cc1 (centres unmarked) [Example 10, 3-Cyclopentyl-2-[4-(1H-indol-5-yl)-phenyl]-N-thiazol-2-yl-propionamide]	112 to 115 °C
O=C(Nc1nc(CO)cs1)C(CC1CCCC1)c1ccc(Oc2ccccc2)cc1 (centres unmarked) [Example 13, 3-Cyclopentyl-N-(4-hydroxymethyl-thiazol-2-yl)-2-(4-phenoxy-phenyl)-propionamide]	83.7 to 87 °C
O=C(Nc1nccs1)C(CC1CCCC1)c1ccc(N2CCOCC2)cc1 (centres unmarked) [Example 18, 3-Cyclopentyl-2-(4-morpholin-4-yl-phenyl)-N-thiazol-2-yl-propionamide]	244 to 246 °C

The remaining lines, values ahead:

melting point	SMILES
194 to 195 °C	O=C(Nc1nccs1)C(CC1CCCC1)c1ccc(-c2ccccc2)cc1 (centres unmarked) [Example 1, 2-Biphenyl-4-yl-3-cyclopentyl-N-thiazol-2-yl-propionamide]
165 to 167 °C	O=C(Nc1ccccn1)C(CC1CCCC1)c1ccc(-c2ccncc2)cc1 (centres unmarked) [Example 29, 3-Cyclopentyl-N-pyridin-2-yl-2-(4-pyridin-4-yl-phenyl)-propionamide]
48 to 52 °C	O=C(Nc1nccs1)C(CC1CCCC1)c1ccc(-c2cccnc2)cc1 (centres unmarked) [Example 8, 3-Cyclopentyl-2-(4-pyridin-3-yl-phenyl)-N-thiazol-2-yl-propionamide]
73 to 77 °C	O=C(Nc1ccccn1)C(CC1CCCC1)c1ccc(-c2cccc3ccccc23)cc1 (centres unmarked) [Example 25, 3-Cyclopentyl-2-(4-naphthalen-1-yl-phenyl)-N-pyridin-2-yl-propionamide]
57 to 59 °C	O=C(Nc1ccccn1)C(CC1CCCC1)c1ccc(-c2ccccc2)cc1 (centres unmarked) [Example 21, 2-Biphenyl-4-yl-3-cyclopentyl-N-pyridin-2-yl-propionamide]
132 to 134 °C	O=C(Nc1nccs1)[C@H](CC1CCCC1)c1ccc(-c2ccccc2)cc1 [Example 4, (2R)-2-Biphenyl-4-yl-3-cyclopentyl-N-thiazol-2-yl-propionamide]
139 to 140 °C	O=C(Nc1ccccn1)C(CC1CCCC1)c1ccc(-c2cccnc2)cc1 (centres unmarked) [Example 28, 3-Cyclopentyl-N-pyridin-2-yl-2-(4-pyridin-3-yl-phenyl)-propionamide]
202 to 204 °C	O=C(Nc1nccs1)C(CC1CCCC1)c1ccc(-c2cccc3ccccc23)cc1 (centres unmarked) [Example 5, 3-Cyclopentyl-2-(4-naphthalen-1-yl-phenyl)-N-thiazol-2-yl-propionamide]
213 to 215 °C	O=C(Nc1nccs1)C(CC1CCCC1)c1ccc(-c2ccncc2)cc1 (centres unmarked) [Example 9, 3-Cyclopentyl-2-(4-pyridin-4-yl-phenyl)-N-thiazol-2-yl-propionamide]
67 to 70 °C	O=C(Nc1ccc(CO)cn1)C(CC1CCCC1)c1ccc(-c2ccccc2)cc1 (centres unmarked) [Example 24, 2-Biphenyl-4-yl-3-cyclopentyl-N-(5-hydroxymethyl-pyridin-2-yl)-propionamide]
63 to 65 °C	COC(=O)c1ccc(NC(=O)C(CC2CCCC2)c2ccc(-c3ccccc3)cc2)nc1 (centres unmarked) [Example 22, 6-(2-Biphenyl-4-yl-3-cyclopentyl-propionylamino)-nicotinic acid methyl ester]
184 to 185 °C	NC(=O)NC(=O)C(CC1CCCC1)c1ccc(-c2ccccc2)cc1 (centres unmarked) [Example 33, (2-Biphenyl-4-yl-3-cyclopentyl-propionyl) urea]
271 to 272 °C (dec.)	O=C(O)c1ccc(NC(=O)C(CC2CCCC2)c2ccc(-c3ccccc3)cc2)nc1 (centres unmarked) [Example 23, 6-(2-Biphenyl-4-yl-3-cyclopentyl-propionylamino)-nicotinic acid]
102 to 104 °C	O=C(Nc1nc(CO)cs1)C(CC1CCCC1)c1ccc(-c2ccccc2)cc1 (centres unmarked) [Example 3, 2-Biphenyl-4-yl-3-cyclopentyl-N-(4-hydroxymethyl-thiazol-2-yl)-propionamide]
